Assay [1] deals with p38α MAPK. The settings on record: read-out: IC50 (published by companies), p38α MAPK inhibition; cited from earlier work.
The subject of the next assay is CK1. The settings on record: read-out: IC50 (published by companies), CK1 inhibition; cited from earlier work.
The next assay concerns the target PKD1 (Homo sapiens (Human), UniProt Q15139). The settings on record: read-out: IC50 (published by companies), PKD1 inhibition; cited from earlier work.
Assay [2] relates to hESC3 Nkx2.5eGFP/w cells. In words: Cardiomyocyte differentiation of embryoid bodies, Nkx2.5 GFP by flow cytometry. The class given is cell-based, human. As to conditions: for Cardiogenic effect (GFP expression fold over DMSO): 5 μM. For orientation: Flow cytometry measures light scatter and fluorescence of single cells or particles in a stream.
Another assay concerns the target CK1δ (Homo sapiens (Human), UniProt P48730). In words: LanthaScreen Eu kinase binding assay, CK1δ.
Assay [3] addresses p38α MAPK (Homo sapiens (Human), UniProt Q16539). In words: HitHunter p38 MAP kinase binding assay. The settings on record: read-out: p38α MAPK IC50 ± SEM.
Assay [4] relates to hESC3 Nkx2.5eGFP/w cells. In words: Differentiation in 96-U bottom ultra-low attachment well plates, GFP area imaging. The class given is cell-based, human. As to conditions: 5 μM; for Average GFP %: after CHIR99021, read on day 14, GFP area over embryoid body size; for Average GFP μm^2 / Average Area μm^2: day 14; for Average Area μm^2: embryoid body size.
The test system of the next assay is HES-3. Nature of the assay: Differentiation on microcarriers. The class given is cell-based, human. The settings on record: microcarrier platform, 5 μM. Here is the method: HES-3 were seeded at 2×10^5 cells/ml in the 50 ml spinner flask that contained 25 ml hESC medium and 200 mg PLL+LN-coated MC (poly-L-lysine and laminin coated microcarrier). The sample was incubated at 37° C./5% carbon dioxide for 24 hours in static conditions, after which another 25 ml hESC medium were added and the culture was then agitated at 30 rpm for 6 days. Eighty percent of the spent medium was replaced daily with fresh hESC medium. The cell concentration and cell viability were determined daily using a Nucleocounter NC-3000 (Chemometec, Davis, Calif., USA). Pluripotent markers were measured by flow cytometry on day 7. The size of the hESC/MC aggregates was measured from images taken using an Olympus IX70 microscope (Olympus, Shinjuku-ku, Tokoyo, Japan), with average dimensions determined using NIH image J software.
After 24 hours the differentiation medium was replenished, and 5 μM IWP-2 or TA-01 was added at day 3. […] On day 20 of the differentiation protocol, cells from all cultures were harvested and analyzed by fluorescence-activated cell sorting (FACS) for cardiac markers MLC2a and Tropoin T (cTnt) and MF20.
Studies with the 2,4,5-tri-substituted azole compounds were done at a fixed concentration of 5 μM at an induction day 2 and alternatively at day 3. […] On day 14 of differentiation, EBs were visually analysed for cardiomyocyte differentiation. […]

The next assay addresses CK1ϵ (Homo sapiens (Human), UniProt P49674). In words: LanthaScreen Eu kinase binding assay, CK1ϵ. In general terms: Time-resolved FRET reads energy transfer from a long-lived donor to a nearby acceptor.
For another assay, the system named is H3 hESCs Nkx2.5eGFP/w. In words: High yield cardiomyocyte differentiation after 24 h CHIR99021 pre-treatment. As to conditions: for Average beating frequency / Beat count (percentage of EBs contracting within 10 s) / Beating area: CHIR99021 only, CHIR99021 with SB203580 (days 1-8), CHIR99021 with IM-31 (days 4-8). In kind it is cell-based, human.
The next assay concerns porcupine/Wnt. As to conditions: read-out: IC50 (published by companies), porcupine/Wnt inhibition; cited from earlier work.
In the next assay the target is p38β MAPK (Homo sapiens (Human), UniProt Q15759). As to conditions: read-out: IC50 (published by companies), p38β MAPK inhibition; cited from earlier work.
Another assay relates to p38 MAPK. The settings on record: read-out: IC50 (published by companies), p38 MAPK inhibition; cited from earlier work.
A further assay relates to TNF-a. The settings on record: read-out: IC50 (published by companies), TNF-a inhibition; cited from earlier work.

Entries after “also recorded” stand apart in the source; their conditions may differ. Like-named read-outs stand apart in the source and are kept apart here.

Sequence of CK1ϵ (P49674 whole entry): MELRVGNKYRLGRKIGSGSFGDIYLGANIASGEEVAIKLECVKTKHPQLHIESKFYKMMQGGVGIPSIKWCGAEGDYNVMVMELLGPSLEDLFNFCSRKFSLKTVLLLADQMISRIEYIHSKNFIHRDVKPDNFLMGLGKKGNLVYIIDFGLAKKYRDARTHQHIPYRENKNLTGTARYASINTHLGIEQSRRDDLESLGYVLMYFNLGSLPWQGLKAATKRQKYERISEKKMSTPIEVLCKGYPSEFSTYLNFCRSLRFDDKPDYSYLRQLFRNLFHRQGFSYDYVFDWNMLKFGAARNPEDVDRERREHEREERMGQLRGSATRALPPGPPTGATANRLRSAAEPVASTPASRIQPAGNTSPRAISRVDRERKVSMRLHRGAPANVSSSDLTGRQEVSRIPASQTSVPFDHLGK
Sequence of CK1δ (P48730 whole entry): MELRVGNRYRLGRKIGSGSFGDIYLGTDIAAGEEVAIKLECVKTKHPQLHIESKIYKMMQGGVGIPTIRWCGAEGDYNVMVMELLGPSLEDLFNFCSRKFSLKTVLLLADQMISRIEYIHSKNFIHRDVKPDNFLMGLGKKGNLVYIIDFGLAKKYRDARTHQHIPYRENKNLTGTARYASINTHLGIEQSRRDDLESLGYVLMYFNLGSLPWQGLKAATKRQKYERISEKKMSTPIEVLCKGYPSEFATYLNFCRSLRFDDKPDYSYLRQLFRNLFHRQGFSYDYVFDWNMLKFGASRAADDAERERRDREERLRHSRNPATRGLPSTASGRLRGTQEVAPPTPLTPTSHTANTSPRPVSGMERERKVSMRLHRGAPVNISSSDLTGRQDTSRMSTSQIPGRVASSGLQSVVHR
Sequence of p38β MAPK (Q15759 whole entry): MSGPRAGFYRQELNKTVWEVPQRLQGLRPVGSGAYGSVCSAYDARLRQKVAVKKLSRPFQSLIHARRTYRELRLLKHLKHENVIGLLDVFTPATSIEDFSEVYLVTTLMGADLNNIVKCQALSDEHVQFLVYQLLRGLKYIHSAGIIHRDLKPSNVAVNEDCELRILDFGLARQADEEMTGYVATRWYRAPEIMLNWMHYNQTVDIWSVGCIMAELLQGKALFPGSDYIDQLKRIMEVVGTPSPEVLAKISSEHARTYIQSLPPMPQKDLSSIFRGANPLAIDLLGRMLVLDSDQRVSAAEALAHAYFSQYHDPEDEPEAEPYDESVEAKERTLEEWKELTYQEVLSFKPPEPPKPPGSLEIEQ
Sequence of p38α MAPK (Homo sapiens (Human), UniProt Q16539) (Q16539 whole entry, looked up): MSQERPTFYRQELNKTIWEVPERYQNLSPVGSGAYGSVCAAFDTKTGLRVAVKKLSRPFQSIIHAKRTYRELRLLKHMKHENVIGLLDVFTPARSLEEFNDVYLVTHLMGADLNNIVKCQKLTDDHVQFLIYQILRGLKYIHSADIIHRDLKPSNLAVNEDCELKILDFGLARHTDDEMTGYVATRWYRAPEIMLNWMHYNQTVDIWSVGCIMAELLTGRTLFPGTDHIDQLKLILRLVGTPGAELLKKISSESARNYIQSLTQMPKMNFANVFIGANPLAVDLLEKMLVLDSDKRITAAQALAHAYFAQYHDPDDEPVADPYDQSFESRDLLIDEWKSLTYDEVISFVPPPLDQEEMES
Sequence of PKD1 (Q15139 whole entry): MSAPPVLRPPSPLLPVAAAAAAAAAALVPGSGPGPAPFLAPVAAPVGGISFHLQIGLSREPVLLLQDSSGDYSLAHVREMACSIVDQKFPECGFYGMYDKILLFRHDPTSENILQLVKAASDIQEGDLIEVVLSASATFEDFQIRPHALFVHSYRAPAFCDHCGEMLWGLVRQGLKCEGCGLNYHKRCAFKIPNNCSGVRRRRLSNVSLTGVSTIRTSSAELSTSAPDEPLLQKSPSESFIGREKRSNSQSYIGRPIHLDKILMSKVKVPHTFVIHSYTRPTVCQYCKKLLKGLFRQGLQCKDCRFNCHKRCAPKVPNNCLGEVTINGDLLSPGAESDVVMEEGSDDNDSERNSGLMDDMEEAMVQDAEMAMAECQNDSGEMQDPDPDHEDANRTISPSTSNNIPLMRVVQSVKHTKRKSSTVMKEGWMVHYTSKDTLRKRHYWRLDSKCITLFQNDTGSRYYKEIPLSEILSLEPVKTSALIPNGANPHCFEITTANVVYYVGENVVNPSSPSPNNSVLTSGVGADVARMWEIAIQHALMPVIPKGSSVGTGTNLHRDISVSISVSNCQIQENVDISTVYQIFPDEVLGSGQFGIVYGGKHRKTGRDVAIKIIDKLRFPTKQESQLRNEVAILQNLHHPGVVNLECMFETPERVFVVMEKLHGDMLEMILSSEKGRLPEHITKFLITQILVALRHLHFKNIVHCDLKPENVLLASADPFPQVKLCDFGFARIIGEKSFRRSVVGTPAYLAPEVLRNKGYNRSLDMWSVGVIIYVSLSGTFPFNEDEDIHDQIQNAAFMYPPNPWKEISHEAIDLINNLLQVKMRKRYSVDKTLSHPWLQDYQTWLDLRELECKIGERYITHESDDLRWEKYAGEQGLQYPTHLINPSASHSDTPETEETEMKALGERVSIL

With `NC(=O)c1ccc(-c2nc(-c3ccc4c(c3)OCCO4)c(-c3ccccn3)[nH]2)cc1` [Compound D4476], the values for the IC50 in the assay on p38α MAPK [1], in the assay on CK1 and on PKD1 were 5.8 µM, […] and 9.1 µM, respectively.

Turning to `Fc1ccc(-c2nc(-c3c(F)cccc3F)[nH]c2-c2ccncc2)cc1` [IM-31, 4-(2-(2,6-difluorophenyl)-4(5)-(4-fluorophenyl)-1H-imidazol-5(4)-yl)pyridine], the “Cardiogenic effect (Nkx2.5 expression)” value in the assay with hESC3 Nkx2.5eGFP/w cells [2] (1 μM) is “same cardiogenic effect as 5 μM of SB203580”. The “Cardiogenic effect (GFP expression fold over DMSO)” value in the assay on hESC3 Nkx2.5eGFP/w cells [2] (days 1-8 of differentiation) is “complete inhibition of cardiomyocyte development; also recorded: failed to induced cardiomyogenesis”; with hESC3 Nkx2.5eGFP/w cells [2] (days 4-8 of differentiation), “good inducers”. Further, in the assay with hESC3 Nkx2.5eGFP/w cells [2] (applied as the sole inhibitor), the Cardiomyocytes generated is recorded as 10-20%. Besides, the IC50 at CK1δ (Table 3, read-out: IC50 CK1δ) came to 0.0068 µM; on CK1δ (read-out: CK1δ IC50 ± SEM) it was 0.0068 ± 0.0009 µM; at p38α MAPK [3] it was 0.0067 ± 0.0015 µM; at CK1ϵ (Table 3, read-out: IC50 Ck1ε) it was 0.0064 µM; on CK1ϵ (read-out: CK1ϵ IC50 ± SEM), 0.0064 ± 0.0004 µM. Also, in the assay on hESC3 Nkx2.5eGFP/w cells [4] (at specific time course (induction day 2 or 3)), the Cardiogenic properties result is “higher cardiogenic properties as SB203580 and IWP-2”. Besides, the figures for the “Average GFP %” value with hESC3 Nkx2.5eGFP/w cells [4] (Induction Day 2) and with hESC3 Nkx2.5eGFP/w cells [4] (Induction Day 3) were 1.5% and 31.1%, respectively. For the same compound, the “Average GFP μm^2” value with hESC3 Nkx2.5eGFP/w cells [4] (Induction Day 2) is given as 19.1 μm^2; in the assay on hESC3 Nkx2.5eGFP/w cells [4] (Induction Day 3), 476.6 μm^2. Also, the “Average Area μm^2” value turned out to be 814.7 μm^2 with hESC3 Nkx2.5eGFP/w cells [4] (Induction Day 2) and 1529.1 μm^2 in the assay with hESC3 Nkx2.5eGFP/w cells [4] (Induction Day 3). In addition, in the assay on HES-3, the “Amounts of cardiomyocytes (cell numbers) compared to IWP-2” value is reported as “same amounts of cardiomyocytes”. For the same compound, in the assay on H3 hESCs Nkx2.5eGFP/w (3 μM CHIR99021 24 h then 5 μM days 4-8, day 11), the “Total cell count, fold increase (cell expansion)” value was 2 fold. In addition, the Average beating frequency in the assay with H3 hESCs Nkx2.5eGFP/w is recorded as 25-30 beats per minute. Also, the “Beat count (percentage of EBs contracting within 10 s)” value in the assay with H3 hESCs Nkx2.5eGFP/w is reported as “over 75%”. Further, the Beating area with H3 hESCs Nkx2.5eGFP/w is given as more than 5 mm^2. Also, the Cardiomyocyte development entry in the assay on H3 hESCs Nkx2.5eGFP/w (CHIR99021 then 5 μM days 1-8) was “inhibition of cardiomyocytes development”. In addition, the “Cardiomyocyte yield, cardiomyocytes per hESC seeded” value with H3 hESCs Nkx2.5eGFP/w (CHIR99021 then 5 μM days 4-8, day 11) is listed as ~1.2 cardiomyocytes per hESC seeded. In addition, the “Cardiomyocyte yield compared to other Wnt inhibitor compounds such as IWP-2” value with H3 hESCs Nkx2.5eGFP/w (combination with CHIR99021) was “twofold increase in cardiomyocyte yield”.

As for `Cc1ccc2nc(NC(=O)CSc3nc4c(c(=O)n3-c3ccccc3)SCC4)sc2c1` [IWP-2, reference compound], in the assay with hESC3 Nkx2.5eGFP/w cells [4] (Induction Day 2), the “Average GFP %” value is 4.8%, the “Average GFP μm^2” value was found to be 19.6 μm^2 and the “Average Area μm^2” value came to 362.9 μm^2. Also, in the assay with hESC3 Nkx2.5eGFP/w cells [4] (Induction Day 3), the “Average GFP %” value came to 38.4%, the “Average GFP μm^2” value is 216.9 μm^2 and the “Average Area μm^2” value was 604.5 μm^2. In addition, in the assay with H3 hESCs Nkx2.5eGFP/w (CHIR99021 then 5 μM days 4-8), the Cell growth entry is recorded as “strongly reduced cell growth”. Further, the Cardiomyocyte functionality result with H3 hESCs Nkx2.5eGFP/w (combination with CHIR99021, days 4-8) is recorded as “reduced functionality”. The IC50 in the assay with porcupine/Wnt was 0.027 µM.

Consider `Oc1ccc(-c2nc(-c3ccc(F)cc3)c(-c3ccncc3)[nH]2)cc1` [SB202190, reference compound], for which the IC50 on CK1δ (Table 3, read-out: IC50 CK1δ) is 0.053 µM; on CK1δ (read-out: CK1δ IC50 ± SEM) it was 0.053 ± 0.007 µM; with p38α MAPK [1] it was […]; at CK1ϵ (Table 3, read-out: IC50 Ck1ε) it was 0.083 µM; at CK1ϵ (read-out: CK1ϵ IC50 ± SEM), 0.083 ± 0.004 µM.

Take `Cc1c[nH]c(-c2cnc(NCCNc3ccc(C#N)cn3)nc2-c2ccc(Cl)cc2Cl)n1` [CHIR99021]: the IC50 in the assay on p38α MAPK [1] is 0.01 µM. In addition, the IC50 at p38β MAPK was 0.0067 µM. Also, in the assay on H3 hESCs Nkx2.5eGFP/w, the Average beating frequency is on record as 25-30 beats per minute, the “Beat count (percentage of EBs contracting within 10 s)” value was “over 75%” and the Beating area is given as more than 5 mm^2. In addition, in the assay with H3 hESCs Nkx2.5eGFP/w (day 11, flow cytometry, 3 μM CHIR99021 for 24 h), the Nkx2.5 population came out at 30%.

With Skepinone-L, the figures for the IC50 in the assay on p38 MAPK and with TNF-a were 0.005 µM and 0.04 µM, respectively.

Values taken from patent US10865384B2, “2,4,5-tri-substituted azole-based casein kinase 1 inhibitors as inducers for cardiomyogenesis” (AGENCY FOR SCIENCE, TECHNOLOGY AND RESEARCH, priority 2014, dated 2020).
